In patent US20150126530A1, “Novel Substituted Imidazopyrimidines as Gpbar1 Receptor Modulators” (Torrent Pharmaceuticals Limited., priority 2011, published 2015):

Tests used:
[1] = tested on: Diabetic Hamster; test: Single dose efficacy on glucose tolerance (OGTT) in diabetic hamster; type: in vivo; details: Mesocricetus auratus, read-out: Decrease in AUC of glucose % change w.r.t. vehicle control group; for inhibition in vivo at 36 mg/kg: single oral dose 36 mg/kg; for inhibition in vivo at 41 mg/kg: single oral dose 41 mg/kg
Description: i) Evaluation of Single Dose Efficacy of Test Compounds on Glucose Tolerance:
Thus efficacy can be assessed through the effect of test compounds on lowering of plasma glucose during OGTT through stimulating glucose stimulated insulin secretion.
The potential of test compounds in lowering of Plasma Glucose was evaluated in Oral glucose tolerance test (OGTT) in Diabetic Hamster Model, where diabetes has been induced by administration of low dose of Streptozotocin (STZ) to the High fat diet (HFD) fed glucose intolerant animals. The diabetic hamsters show impaired glucose stimulated insulin secretion and higher plasma glucose excursions than the normal animals, which remains elevated beyond 2 hrs post glucose load. Thus the animal model can be used for evaluating the potential of test compounds to lower plasma glucose through stimulating glucose stimulated insulin secretion. On the day of study post 6 hrs of fasting, test compounds or vehicle was administered orally at dose volume of 2 ml/kg to the hamsters of the respective treatment groups. Subsequent to dosing, a pre-glucose load blood sample was taken. A glucose load of 40% solution at 5 ml/Kg dose volume was administered orally. Blood samples through retroorbital plexus were taken at 15, 30 60 & 120 min. post glucose load and plasma was separated for glucose measurement. Post glucose load percentage change in plasma glucose and AUC of % change glucose by the treatment was assessed.

[2] = target: T1, human TGR5 (Homo sapiens, UniProt Q8TDU6); test: cAMP Responsive Element (CRE)-Reporter Assay; type: cell-based; details: luciferase activity relative to vehicle control, five hours, CHO cells transfected with human TGR5 and CRE-luciferase
T1 construct: host or cells: CHO cells (ATCC)
T1 sequence (Q8TDU6 1-330): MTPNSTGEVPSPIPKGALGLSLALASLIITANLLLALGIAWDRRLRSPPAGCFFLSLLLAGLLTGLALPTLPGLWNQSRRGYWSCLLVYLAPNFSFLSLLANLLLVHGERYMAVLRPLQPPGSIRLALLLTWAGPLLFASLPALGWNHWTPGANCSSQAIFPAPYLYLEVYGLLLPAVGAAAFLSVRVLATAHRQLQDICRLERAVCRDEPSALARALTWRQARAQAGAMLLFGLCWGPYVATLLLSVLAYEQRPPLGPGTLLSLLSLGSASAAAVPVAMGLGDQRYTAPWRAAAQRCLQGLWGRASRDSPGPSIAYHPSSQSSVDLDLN
Description: (A) cAMP Responsive Element (CRE)-Reporter Assay:
CHO cells (ATCC) were transfected with human TGR5 (oriGene) and CRE-luciferase reporter vector. Transfected cells were treated with vehicle control or test compounds (Conc 10 μM) for five hours and then lysed. Cell lysates were monitored for luciferase acivity. Increase in luciferase activity is considered as a result of TGR5 activation. Results were expressed as fold induction as compared to vehicle control.
Results are summarized in Table 2 where, + indicates 1.5-2 fold while ++, +++, ++++ indicate 2-3 fold, 3-4 fold, and >4 fold induction respectively relative to vehicle control when tested at 10 μM concentration.

[3] = target: T1, human TGR5; test: cAMP Measurement Assay (Alphascreen); type: cell-based; details: cAMP levels, CHO cells transfected with human TGR5, one hour
Description: (B) cAMP Measurement Assay:
CHO cells (ATCC) were transfected with human TGR5 vector (oriGene). Transfected cells were treated with vehicle control or test compounds for one hour and then lysed. Levels of cAMP were measured in cell lysates employing Alphascreen cAMP assay kit (Perkin Elmer) and results were expressed EC50 values which are summarized in Table 3.

[4] = tested on: Human enteroendocrine cell-line (NCI-H716); test: Measurement of Glucagon Like Peptide-1 (GLP-1) secretion; type: cell-based; details: NCI-H716 cells, one hour, with respect to vehicle control
Description: (C) Measurement of Glucagon Like Peptide-1 (GLP-1):
Human enteroendocrine cell-line (NCI-H716) were incubated with vehicle or test compounds for one hour. At the end of incubation period, levels of secreted GLP-1 in culture medium were measured by GLP-1 ELISA kit (Millipore). Results are summarized as fold increase in GLP secretion with respect to vehicle control in Table 4.

| Structure (SMILES) | fold induction at 10 µM [2] | further results |
| --- | --- | --- |
| CN(C(=O)c1c(-c2ccccc2)nc2ncccn12)c1ccc(Cl)cc1 [Compound no. 1, N-(4-chlorophenyl)-N-methyl-2-phenylimidazo[1,2-a]pyrimidine-3-carboxamide] | > 4 | inhibition in vivo at 36 mg/kg [1]: 33%; EC50 [3]: 35 nM |
| CN(C(=O)c1c(-c2ccc(F)cc2)nc2ncccn12)c1ccc(F)cc1 [Compound no. 22, N,2-bis(4-fluorophenyl)-N-methylimidazo[1,2-a]pyrimidine-3-carboxamide] | 3 to 4 | inhibition in vivo at 36 mg/kg [1]: 20%; Fold increase in GLP Release [4]: 2.13 fold |
| CN(C(=O)c1c(-c2ccc3c(c2)OCO3)nc2ncccn12)c1ccc(F)cc1 [Compound no. 28, 2-(1,3-benzodioxol-5-yl)-N-(4-fluorophenyl)-N-methylimidazo[1,2-a]pyrimidine-3-carboxamide] | 2 to 3 | inhibition in vivo at 39 mg/kg ([1]; single oral dose 39 mg/kg): 5%; Fold increase in GLP Release [4]: 2.03 fold |
| CN(C(=O)c1c(-c2cccc(C(F)(F)F)c2)nc2ncccn12)c1ccc(F)cc1 [Compound no. 33, N-(4-fluorophenyl)-N-methyl-2-[3-(trifluoromethyl)phenyl]imidazo[1,2-a]pyrimidine-3-carboxamide] | > 4 | inhibition in vivo at 41 mg/kg [1]: 20%; Fold increase in GLP Release [4]: 1.83 fold; EC50 [3]: 155 nM |
| CN(C(=O)c1c(-c2cccc(C#N)c2)nc2ncccn12)c1ccc(Cl)cc1 [Compound no. 36, N-(4-chlorophenyl)-2-(3-cyanophenyl)-N-methylimidazo[1,2-a]pyrimidine-3-carboxamide] | 2 to 3 | inhibition in vivo at 38 mg/kg ([1]; single oral dose 38 mg/kg): 8% |
| CC(C)N(C(=O)c1c(-c2ccc(F)cc2)nc2ncccn12)c1ccc(Cl)cc1 [Compound no. 65, N-(4-chlorophenyl)-2-(4-fluorophenyl)-N-(propan-2-yl)imidazo[1,2-a]pyrimidine-3-carboxamide] | 3 to 4 | inhibition in vivo at 41 mg/kg [1]: 10% |
| CN(C(=O)c1c(-c2ccc(O)cc2)nc2ncccn12)c1ccc(Cl)cc1 [compound 30, N-(4-chlorophenyl)-2-(4-hydroxyphenyl)-N-methylimidazo[1,2-a]pyrimidine-3-carboxamide] | 3 to 4 | Fold increase in GLP Release [4]: 1.69 fold |
| CN(C(=O)c1c(-c2ccc(O)c(F)c2)nc2ncccn12)c1ccc(F)cc1 [compound 42, 2-(3-fluoro-4-hydroxyphenyl)-N-(4-fluorophenyl)-N-methylimidazo[1,2-a]pyrimidine-3-carboxamide] | 2 to 3 |  |
| COc1ccc(-c2nc3ncccn3c2C(=O)N(C)c2ccc(F)cc2F)cc1F [compound 43, N-(2,4-difluorophenyl)-2-(3-fluoro-4-methoxyphenyl)-N-methylimidazo[1,2-a]pyrimidine-3-carboxamide] | 1.5 to 2 |  |
| COc1ccc(-c2nc3ncccn3c2C(=O)N(C)c2ccc(Cl)cc2)cc1F [compound 44, N-(4-chlorophenyl)-2-(3-fluoro-4-methoxyphenyl)-N-methylimidazo[1,2-a]pyrimidine-3-carboxamide] | 3 to 4 |  |
| COc1ccc(-c2nc3ncccn3c2C(=O)N(C)c2ccc(F)c(Cl)c2)cc1F [compound 45, N-(3-chloro-4-fluorophenyl)-2-(3-fluoro-4-methoxyphenyl)-N-methylimidazo[1,2-a]pyrimidine-3-carboxamide] | > 4 |  |
| CN(C(=O)c1c(Oc2ccccc2)nc2ncccn12)c1ccc(Cl)cc1 [compound 47, N-(4-chlorophenyl)-N-methyl-2-phenoxyimidazo[1,2-a]pyrimidine-3-carboxamide] | 3 to 4 |  |
| CN(C(=O)c1c(Oc2ccc(Cl)cc2)nc2ncccn12)c1ccc(Cl)cc1 [compound 48, 2-(4-chlorophenoxy)-N-(4-chlorophenyl)-N-methylimidazo[1,2-a]pyrimidine-3-carboxamide] | 2 to 3 |  |
| COc1ccc(Oc2nc3ncccn3c2C(=O)N(C)c2ccc(Cl)cc2)cc1 [compound 49, N-(4-chlorophenyl)-2-(4-methoxyphenoxy)-N-methylimidazo[1,2-a]pyrimidine-3-carboxamide] | 3 to 4 |  |
| CN(C(=O)c1c(Oc2ccc(Cl)cc2)nc2ncccn12)c1ccc(F)cc1 [compound 51, 2-(4-chlorophenoxy)-N-(4-fluorophenyl)-N-methylimidazo[1,2-a]pyrimidine-3-carboxamide] | 2 to 3 |  |
| COc1ccc(N(C)C(=O)c2c(Oc3ccc(F)cc3)nc3ncccn23)cc1 [compound 52, 2-(4-fluorophenoxy)-N-(4-methoxyphenyl)-N-methylimidazo[1,2-a]pyrimidine-3-carboxamide] | 3 to 4 |  |
| O=C(c1c(-c2ccc(F)cc2)nc2ncccn12)N(c1ccc(Cl)cc1)C1CC1 [compound 136, N-(4-chlorophenyl)-N-cyclopropyl-2-(4-fluorophenyl)imidazo[1,2-a]pyrimidine-3-carboxamide] | 3 to 4 |  |
